Test results reported in patent US7781596B1, “Substituted 2-phenylbenzimidazoles, the production thereof and their use” (Abbott Laboratories, priority 1998, dated 2010).
Structures can show the parent of a compound that is named as a salt. Where two headings read alike, the source gives them in different places. Blank lines part the entries; values can stand above or below the compound they belong to.

What was measured:
circulatory failure = conditions: S. Cuzzocrea et al., Br. J. Pharmacol. 1997, 121, 1065-1074; cited from earlier work
[1] = pH 5
Description: (§1) If the measured substance is not in the form of a water-soluble salt, it was dissolved in the minimum amount of dimethyl sulfoxide and then diluted with water (final dimethyl sulfoxide concentration≦1%), after which the pH was again adjusted.

[2] = Determination of the solubility in water; conditions: solution adjusted to pH 5 to 6 with sodium acetate, DMSO <=1% if not a water-soluble salt
Description: as §1

Structure (SMILES): NC(=O)c1cccc(N)c1 [3-aminobenzamide]
effects in a model of circulatory failure (circulatory failure): protective effects

solubility in water [1]: > 0.5%
Structure (SMILES): CCN(CC)CCOc1ccc(-c2nc3c(C(N)=O)cccc3[nH]2)cc1 [Example 2, 2-(4-(2-(N,N-Diethylamino)eth-1-yloxy)phenyl)benzimidazole-4-carboxamide×2 hydrochloride]

solubility in water [2]: < 0.01%
Structure (SMILES): COc1ccc(-c2nc3cccc(C(N)=O)c3[nH]2)cc1 [NU 1076]
